Counter-ions that a name gives are not always drawn. Like-named read-outs stand apart in the source and are kept apart here.
Biological target: canine TRPM8 (Canis lupus familiaris, UniProt Q1A7N1)
Assay: In vitro canine TRPM8 functional assay (Ca2+-sensitive fluorescent dye, icilin activation)
Type: cell-based
Experimental: The functional activity of representative compounds of the formula (I) of the present invention was quantified by measuring changes in intracellular calcium concentration using a Ca^2+-sensitive fluorescent dye. The changes in fluorescent signal were monitored by a fluorescence plate reader, either a FLIPR™ (Molecular Devices) or FDSS (Hamamatsu).
HEK293 cells stably expressing canine TRPM8 were routinely grown as monolayers in Dulbecco's minimum essential medium supplemented with 10% FBS, 2 mM L-glutamine, 100 units/mL penicillin, 100 ug/mL streptomycin and 400 μg/mL G418. Cells were maintained in 5% CO2 at 37° C. At 24 hr prior to assay, cells were seeded in black wall, clear-base poly-D-lysine coated 384-well plates (BD Biosciences, NJ, USA) at a density of 5,000 cells per well in culture medium and grown overnight in 5% CO2 at 37° C. On assay day, growth media was removed, and cells were loaded with Calcium 3 Dye (Molecular Devices) for 35 min at 37° C., under 5% CO2 and then incubated for 25 min at room temperature and atmosphere. Subsequently, cells were tested for agonist-induced increases in intracellular Ca^2+ levels using FLIPR™ or FDSS. Cells were treated with compounds of the formula (I) at varying concentrations and intracellular Ca^2+ was measured for 5 min prior to the addition of icilin to each well to achieve a final concentration that produces an approximately 80% maximal response.
Maximal fluorescence intensity (FI) achieved upon addition of icilin was exported from the FLIPR™ or FDSS software and further analyzed using GraphPad Prism 3.02 (Graph Pad Software Inc., CA, U.S.A.). Basal FI was subtracted prior to normalizing data to percent of maximal response. Curves were generated using the average of quadruplicate wells for each data point using nonlinear regression of either sigmoidal dose response or sigmoidal dose response (variable slope). Finally, the EC50 and IC50 values were calculated with the best-fit curve determined by GraphPad Prism

[1] = 0.2 μM compound, HEK293 cells stably expressing canine TRPM8, icilin-induced Ca2+ response
[2] = HEK293 cells stably expressing canine TRPM8, icilin-induced Ca2+ response, eight-point concentration-response
[3] = HEK293, 0.2 μM compound, HEK293 cells stably expressing canine TRPM8, icilin-induced Ca2+ response

Sequence of canine TRPM8 (Q1A7N1 1-1104): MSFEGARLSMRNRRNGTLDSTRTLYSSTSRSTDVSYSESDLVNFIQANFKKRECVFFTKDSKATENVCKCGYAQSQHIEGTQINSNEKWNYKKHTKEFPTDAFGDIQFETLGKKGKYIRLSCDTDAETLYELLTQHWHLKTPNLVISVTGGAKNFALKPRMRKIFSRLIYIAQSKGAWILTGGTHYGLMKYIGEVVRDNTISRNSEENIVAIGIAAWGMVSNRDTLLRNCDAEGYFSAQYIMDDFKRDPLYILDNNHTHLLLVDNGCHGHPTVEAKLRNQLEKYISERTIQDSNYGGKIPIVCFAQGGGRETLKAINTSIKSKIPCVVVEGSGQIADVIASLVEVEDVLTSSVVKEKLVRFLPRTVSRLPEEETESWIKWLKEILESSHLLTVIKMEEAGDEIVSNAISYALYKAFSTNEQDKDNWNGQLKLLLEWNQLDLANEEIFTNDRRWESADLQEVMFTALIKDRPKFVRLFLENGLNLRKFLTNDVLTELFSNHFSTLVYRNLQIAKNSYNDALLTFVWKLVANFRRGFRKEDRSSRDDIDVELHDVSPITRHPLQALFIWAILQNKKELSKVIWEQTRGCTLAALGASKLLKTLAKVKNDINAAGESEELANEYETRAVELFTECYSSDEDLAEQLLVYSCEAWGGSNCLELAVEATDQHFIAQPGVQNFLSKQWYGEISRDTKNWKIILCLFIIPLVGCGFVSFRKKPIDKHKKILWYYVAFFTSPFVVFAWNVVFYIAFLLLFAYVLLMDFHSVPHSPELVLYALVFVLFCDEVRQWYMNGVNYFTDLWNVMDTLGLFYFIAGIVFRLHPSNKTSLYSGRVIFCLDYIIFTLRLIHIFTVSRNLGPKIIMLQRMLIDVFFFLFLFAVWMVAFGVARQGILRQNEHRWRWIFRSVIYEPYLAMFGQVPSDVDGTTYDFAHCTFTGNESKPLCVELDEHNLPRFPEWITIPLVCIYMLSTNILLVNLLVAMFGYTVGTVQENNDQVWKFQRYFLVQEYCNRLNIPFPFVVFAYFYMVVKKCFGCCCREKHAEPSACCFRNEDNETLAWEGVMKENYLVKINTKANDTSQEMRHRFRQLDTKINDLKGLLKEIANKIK

SMILES	IC50 [2]	inhibition at 0.2 µM [1]	other results
Cn1nc(C(C)(C)C)c(Cl)c1-c1nc2nc(-c3ccccc3C(F)(F)F)cc(C(F)(F)F)c2[nH]1 [Compound 1]	0.027 µM	–	% Inh @ 0.2 μM [1]: 99%
COc1nc(-c2ccccc2OC(F)(F)F)cc2nc(-c3c(Cl)c(C(C)(C)C)nn3C)[nH]c12 [Compound 2, 2-(5-tert-Butyl-4-chloro-2-methyl-2H-pyrazol-3-yl)-4-methoxy-6-(2-trifluoromethoxy-phenyl)-3H-imidazo[4,5-c]pyridine sodium salt]	0.013 µM	100%	–
Cn1nc(C(C)(C)C)cc1-c1nc2nc(-c3ccccc3C(F)(F)F)cc(Cl)c2[nH]1 [Compound 6, 2-(5-tert-butyl-2-methyl-2H-pyrazol-3-yl)-7-chloro-5-(2-trifluoromethyl-phenyl)-1H-imidazo[4,5-b]pyridine sodium salt]	0.069 µM	65%	–
CC(C)(C)c1cc(-c2nc3nc(-c4ccccc4C(F)(F)F)cc(Cl)c3[nH]2)on1 [Compound 7, 2-(3-tert-Butyl-isoxazol-5-yl)-7-chloro-5-(2-trifluoromethyl-phenyl)-1H-imidazo[4,5-b]pyridine]	0.038 µM	99%	–
COc1nc(-c2ccccc2C(F)(F)F)cc2nc(-c3c(Cl)c(C(C)(C)C)nn3C)[nH]c12 [Compound 9, 2-(5-tert-Butyl-4-chloro-2-methyl-2H-pyrazol-3-yl)-4-methoxy-6-(2-trifluoromethyl-phenyl)-3H-imidazo[4,5-c]pyridine methanesulfonic acid salt, hydrochloride]	–	100%	–
CC(C)(C)c1cc(-c2nc3nc(-c4ccccc4C(F)(F)F)cc(C(F)(F)F)c3[nH]2)on1 [Compound 10, 2-(3-tert-Butyl-isoxazol-5-yl)-7-trifluoromethyl-5-(2-trifluoromethyl-phenyl)-1H-imidazo[4,5-b]pyridine]	0.016 µM	101%	–
COc1nc(-c2ccccc2Cl)cc2nc(-c3cc(C(C)(C)C)nn3C)[nH]c12 [Compound 12, 2-(5-tert-Butyl-2-methyl-2H-pyrazol-3-yl)-6-(2-chloro-phenyl)-4-methoxy-3H-imidazo[4,5-c]pyridine]	0.011 µM	101%	–
COc1nc(-c2ccccc2C(F)(F)F)cc2[nH]c(-c3onc(C(C)(C)C)c3C#N)nc12 [Compound 13, 3-tert-Butyl-5-[4-methoxy-6-(2-trifluoromethyl-phenyl)-1H-imidazo[4,5-c]pyridine-2-yl]-isoxazole-4-carbonitrile methanesulfonic acid salt]	0.046 µM	94%	–
CC(C)Oc1nc(-c2ccccc2C(F)(F)F)cc2nc(-c3c(C#N)c(C(C)(C)C)nn3C)[nH]c12 [Compound 14, 3-tert-Butyl-5-[4-isopropoxy-6-(2-trifluoromethyl-phenyl)-3H-imidazo[4,5-c]pyridin-2-yl]-1-methyl-1H-pyrazole-4-carbonitrile benzenesulfonic acid salt]	0.0012 µM	99%	–
Cn1nc(C(C)(C)C)c(C#N)c1-c1nc2cc(-c3ccccc3C(F)(F)F)nc(OCC(F)(F)F)c2[nH]1 [Compound 15, 3-tert-Butyl-1-methyl-5-[4-(2,2,2-trifluoro-ethoxy)-6-(2-trifluoromethyl-phenyl)-3H-imidazo[4,5-c]pyridine-2-yl]-1H-pyrazole-4-carbonitrile methanesulfonic acid salt]	0.0018 µM	100%	–
CC(C)Oc1nc(-c2ccccc2C(F)(F)F)cc2nc(-c3c(Cl)c(C(C)(C)C)nn3C)[nH]c12 [Compound 16, 2-(5-tert-Butyl-4-chloro-2-methyl-2H-pyrazol-3-yl)-4-isopropoxy-6-(2-trifluoromethyl-phenyl)-3H-imidazo[4,5-c]pyridine benzenesulfonic acid salt]	0.00059 µM	99%	–
COc1nc(-c2ccccc2Cl)cc2nc(-c3c4c(nn3C)C3(CCCCC3)CC4)[nH]c12 [Compound 18, 2-(2-methyl-6,6-spirocyclohexyl-2,4,5,6-tetrahydro-cyclopenta-2H-pyrazol-3-yl)-4-methoxy-6-(2-chloro-phenyl)-3H-imidazo[4,5-c]pyridine]	–	–	% Inh @ 0.2 μM: 99%; IC50: 0.0082 µM
Cn1nc(C(C)(C)C)c(Cl)c1-c1nc2cc(-c3ccccc3C(F)(F)F)nc(OCC(F)(F)F)c2[nH]1 [Compound 19, 2-(5-tert-Butyl-4-chloro-2-methyl-2H-pyrazol-3-yl)-4-(2,2,2-trifluoroethoxy)-6-(2-trifluoromethyl-phenyl)-3H-imidazo[4,5-c]pyridine methanesulfonic acid salt]	0.00084 µM	100%	–
COCCOc1nc(-c2ccccc2C(F)(F)F)cc2nc(-c3c(Cl)c(C(C)(C)C)nn3C)[nH]c12 [Compound 20, 2-(5-tert-Butyl-4-chloro-2-methyl-2H-pyrazol-3-yl)-4-(2-methoxy-ethoxy)-6-(2-trifluoromethyl-phenyl)-3H-imidazo[4,5-c]pyridine benzenesulfonic acid salt]	0.00095 µM	99%	–
COCCOc1nc(-c2ccccc2C(F)(F)F)cc2nc(-c3c(C#N)c(C(C)(C)C)nn3C)[nH]c12 [Compound 21, 3-tert-Butyl-5-[4-(2-methoxy-ethoxy)-6-(2-trifluoromethyl-phenyl)-3H-imidazo[4,5-c]pyridine-2-yl]-1-methyl-1H-pyrazole-4-carbonitrile benzenesulfonic acid salt]	0.00069 µM	99%	–
Cn1nc(C(C)(C)C)c(C#N)c1-c1nc2cc(-c3ccccc3C(F)(F)F)nc(N3CCCCC3)c2[nH]1 [Compound 22, 3-tert-Butyl-1-methyl-5-[4-piperidin-1-yl-6-(2-trifluoromethyl-phenyl)-3H-imidazo[4,5-c]pyridine-2-yl]-1H-pyrazole-4-carbonitrile]	0.0014 µM	99%	–
Cn1nc(C(C)(C)C)c(Cl)c1-c1nc2nc(-c3ccccc3Cl)ccc2[nH]1 [Compound 23, 2-(5-tert-Butyl-4-chloro-2-methyl-2H-pyrazol-3-yl)-5-(2-chloro-phenyl)-1H-imidazo[4,5-b]pyridine hydrochloride]	–	–	inhibition at 0.2 µM [3]: 96%
CN1CCN(c2nc(-c3ccccc3C(F)(F)F)cc3nc(-c4c(C#N)c(C(C)(C)C)nn4C)[nH]c23)CC1 [Compound 24, 3-tert-Butyl-1-methyl-5-[4-(4-methyl-piperazin-1-yl)-6-(2-trifluoromethyl-phenyl)-3H-imidazo[4,5-c]pyridin-2-yl]-1H-pyrazole-4-carbonitrile methanesulfonic acid salt]	0.0074 µM	–	inhibition at 0.2 µM [3]: 99%
Cn1nc(C(C)(C)C)c(Cl)c1-c1nc2nc(-c3ccccc3OC(F)(F)F)ccc2[nH]1 [Compound 25, 2-(5-tert-Butyl-4-chloro-2-methyl-2H-pyrazol-3-yl)-5-(2-trifluoromethoxy-phenyl)-1H-imidazo[4,5-b]pyridine hydrochloride]	0.012 µM	–	inhibition at 0.2 µM [3]: 100%
CC(C)(C)c1cc(-c2nc3nc(-c4ccccc4Cl)ccc3[nH]2)on1 [Compound 26, 2-(3-tert-Butyl-isoxazol-5-yl)-5-(2-chloro-phenyl)-1H-imidazo[4,5-b]pyridine]	0.035 µM	100%	–
Cn1nc(C(C)(C)C)cc1-c1nc2nc(-c3ccccc3Cl)ccc2[nH]1 [Compound 27, 2-(5-tert-Butyl-2-methyl-2H-pyrazol-3-yl)-5-(2-chloro-phenyl)-1H-imidazo[4,5-b]pyridine]	0.124 µM	73%	–
CN1CCN(c2nc(-c3ccccc3C(F)(F)F)cc3nc(-c4c(Cl)c(C(C)(C)C)nn4C)[nH]c23)CC1 [Compound 28, 2-(5-tert-Butyl-4-chloro-2-methyl-2H-pyrazol-3-yl)-4-(4-methyl-piperazin-1-yl)-6-(2-trifluoromethyl-phenyl)-3H-imidazo[4,5-c]pyridine methanesulfonic acid salt]	0.011 µM	–	inhibition at 0.2 µM [3]: 99%
CC(C)(C)c1cc(-c2nc3nc(-c4ccccc4OC(F)(F)F)ccc3[nH]2)on1 [Compound 29, 2-(3-tert-Butyl-isoxazole-5-yl)-5-(2-trifluoromethoxy-phenyl)-1H-imidazo[4,5-b]pyridine]	0.033 µM	99%	–
CC(C)(C)c1cc(-c2nc3nc(-c4ccccc4F)ccc3[nH]2)on1 [Compound 30, 2-(3-tert-Butyl-isoxazol-5-yl)-5-(2-fluoro-phenyl)-1H-imidazo[4,5-b]pyridine]	0.087 µM	87%	–
CC(C)(C)c1cc(-c2nc3nc(-c4ccccc4C(F)(F)F)ccc3[nH]2)on1 [Compound 31, 2-(3-tert-Butyl-isoxazol-5-yl)-5-(2-trifluoromethyl-phenyl)-1H-imidazo[4,5-b]pyridine]	0.018 µM	100%	–
